Laboratory results published in patent publication US20080176934A1, “Use Of Diosmetin Compounds In The Treatment And Prevention Of Thrombotic Pathologies” (Les Laboratoires Servier, priority 2005, published 2008).
Where two headings read alike, the source gives them in different places.

Assays:
[1] = system: arterial thrombosis induced by FeCl3 on the abdominal aorta; experiment: Model of arterial thrombosis induced by FeCl3 on the abdominal aorta in the rat; assay type: in vivo; conditions: male CD rats, 30 mg/kg/day per os for 5 days, FeCl3 50% on aorta
Description: The studies were carried out on male CD rats weighing between 250 and 400 g (Charles River Laboratories). The experimental protocol carried out on groups of from 6 to 8 rats comprises a group for each compound under test to be compared with a control group in which the rats are treated with a solvent. These rats are used to study the effects of an antithrombotic in a model of arterial thrombosis induced by FeCl3 on the abdominal aorta (Tanaka et al. Z-335, a new thromboxane A2 receptor antagonist, prevents arterial thrombosis induced by ferric chloride in rats, 2000, Eur. J. Pharmacol., 401, 413-418).
The rats are treated with the compound under test, for example 6,8-diallyl-5,7-dihydroxy-2-(2-allyl-3-hydroxy-4-methoxyphenyl)-4H-1-benzopyran-4-one (30 mg/kg/day) by administration per os by gavage for 5 days before arterial thrombosis is induced in those rats. The rats are anaesthetised using pentobarbital 50 mg/kg by intraperitoneal administration and their abdominal aortas are exposed following laparotomy. […]
The activity of 6,8-diallyl-5,7-dihydroxy-2-(2-allyl-3-hydroxy-4-methoxyphenyl)-4H-1-benzopyran-4-one is evaluated as a function of the weight of the clot removed from the aorta, that activity being greater for a lesser weight of clot.

PAI-1 promoter = PAI-1 promoter activity (PGL3/PAI-1 luciferase reporter) in transfected HepG2 cells; assay type: cell-based, human; conditions: for Activity in cpm (PAI-1 promoter activity): 10 μM, 24 h, n=6; for inhibition at 10 µM: Homo sapiens, HepG2, 24 h, read-out: % inhibition/control (PAI-1 promoter activity)
Description: The study is carried out on a line of human hepatocytes HepG2 (ATCC, no. HB-8065). The cells are cultured in a medium of MEM (minimal essential medium) with glutamax-1 (Gibco™) containing 10% FCS (foetal calf serum), 1% non-essential amino acids and 1% sodium pyruvate and supplemented with penicillin and streptomycin.
A fragment of 2.5 kb, corresponding to the PAI-1 promoter, extending from the nucleotides at positions −2442 to +136, was amplified by PCR and sub-cloned (Lopez et al., 2000, Atherosclerosis, 152, 359-366). In a final reaction volume of 50 μl, 2.5 units of Platinum® TaqDNA Polymerase High Fidelity (Invitrogen) are placed in the presence of 300 ng of human genomic DNA (Clontech), 300 μM of dNTP (deoxynucleotide triphosphate) (Clontech), 300 nM of primers in a medium containing the buffer specific to the enzyme, supplemented by 1.5 mM of MgCl2 and different concentrations of PCRx Enhancer System (Invitrogen), which facilitates amplification of the especially difficult sequences (0 to 4×). The set of primers used (Chen et al. Differential mechanisms of PAI-1 gene activation by transforming growth factor beta and tumor necrosis factor alpha in endothelial cells, 2001, Thrmb Haemost, 86, 1563-72) is as follows:
Ligation of the pGL3-Basic plasmid vector and the insert corresponding to the PAI-1 promoter was carried out by means of T4 DNA Ligase (LigaFast™ Rapid DNA Ligation System from Promega). Conventionally, during ligation, there is used an excess of insert which is equivalent to three times the amount of vector. Furthermore, because this insert is half as long as the vector (2.5 kb as opposed to 4.8 kb), maintaining stoichiometric equilibrium requires twice the mass of […]. 37.5 ng of insert and 25 ng of pGL3-Basic vector were therefore reacted in the presence of 3 units of T4 ligase, at ambient temperature.
The PGL3/PAI-1 plasmid is transfected into HepG2 cells. Transfection is carried out in plates having cells at 50% confluence, depositing Lipofectin® (1 mg/ml) and 1.5 μg of PGL3/PAI-1 plasmid in each of the wells. The Lipofectin® is activated for 30 min in an OPTI-MEM medium (GIBCO™) and then brought into contact for 15 min with the plasmids previously diluted with the medium. The cells are incubated for 6 hours at 37° C. in an atmosphere containing 5% CO2 and 95% […]. The transfection medium is withdrawn and replaced overnight by an enriched culture medium in order to stabilise the cells. Expression of the reporter genes is induced over 24 h in an MEM medium without serum. The cells are scratched and lysed in a lysis buffer (Dual-Luciferase® kit, Promega) and then held at −20° C.
The induction phase is 24 h for the HepG2 cells in the presence of TGFβ1 (1 ng/ml). During that induction phase, a PAI-1 expression inhibitor may be added 4 h before TGFβ1 and kept in contact with the cells until the end of the 24 h of the induction phase.
The PAI-1 promoter activity is determined by quantification of the luciferase activity produced (Dual-Luciferase® kit, Promega). To each well there is added a solution of luciferin, the substrate of firefly luciferase. […] The plate is incubated for 10 min in the dark because the luciferase activity is sensitive to light, and then a luminometer reading is started in order to quantify the photons emitted (Wallac, Perkin Elmer), the result obtained being the average cpm (counts per minute) over a period of 5 s.
6,8-Diallyl-5,7-dihydroxy-2-(2-allyl-3-hydroxy-4-methoxyphenyl)-4H-1-benzopyran-4-one, arbitrarily referred to as compound A, and T686 of formula 3(E)-benzylidene-4(E)-(3,4,5-trimethoxybenzylidene)pyrrolidine-2,5-dione (PAI-1 expression inhibitor of reference, from Tanabe) were tested at a concentration of 10 μM on HepG2 cells in the basal state and after induction with TGFβ1. The PAI-1 promoter activity is measured in the control condition and in the presence of inhibitors, in the basal and induced states.

[2] = HepG2, induced by TGFβ1 (1 ng/ml)

SMILES | reduction in the weight of the clot with respect to the control [1] | Weight of clot ([1]; n=6, control 10.6 ± 0.7 mg) | Activity in cpm (PAI-1 promoter activity) (PAI-1 promoter; HepG2, basal condition) | Activity in cpm (PAI-1 promoter activity) (PAI-1 promoter; [2]) | inhibition at 10 µM (PAI-1 promoter; HepG2, basal condition) | inhibition at 10 µM (PAI-1 promoter; [2])
C=CCc1c(-c2cc(=O)c3c(O)c(CC=C)c(O)c(CC=C)c3o2)ccc(OC)c1O [Compound A, 6,8-diallyl-5,7-dihydroxy-2-(2-allyl-3-hydroxy-4-methoxyphenyl)-4H-1-benzopyran-4-one] | ~30% | 7.6 ± 0.4 mg | 445 ± 121 cpm | 765 ± 138 cpm | 69% | 78%
COc1cc(/C=C2/C(=O)NC(=O)/C2=C/c2ccccc2)cc(OC)c1OC [Compound T686, 3(E)-benzylidene-4(E)-(3,4,5-trimethoxybenzylidene)pyrrolidine-2,5-dione, reference compound] |  |  | 473 ± 143 cpm | 1641 ± 173 cpm | 67% | 52%
